Source: PMC9568543, “Bee-safe peptidomimetic acaricides achieved by comparative genomics” (Scientific Reports, 2022)
Where a SMILES comes first, the peptide text is derived from it. Where no end group is shown, it is not given here. [ ]: non-standard residue; d: D form. Oic = O=C(O)[C@@H]1C[C@@H]2CCCC[C@@H]2N1

Tests used:
Varroa mites = test: Varroa mite feeding assay (drop on gnathosoma), paralysis/death; assay type: in vivo, Varroa destructor; conditions: 48 h; 200 nL on gnathosoma; 0.1 nM (methods) / 0.01 nM (Fig. 4 legend)
Protocol: In the continued bioassay, the toxicities were assessed by counting paralysis/death in feeding assay. A drop of 200 nL solution was placed on the gnathosoma of an immobilized mite for forced feedings of active components. Low levels of acute toxicities of peptidomimetics were indicated by lower than 50% effects within 6 h after the treatments. The toxic effects were increased over time and reached 100% of the effects in the 48 h treatments of 2336 (Fig. 4, ANOVA p < 0.05). In H2O control, about 10% or less of the number of individuals were paralyzed/dead. Accurate cause of the paralysis/death remains yet to be studied.
Adult female Varroa mites were collected using a sugar roll method from honey bee hives located at the East Campus apiary of the University of Nebraska (Lincoln, NE USA) in September–October 2019. The hives were not treated with chemicals for honey bee parasites or pathogens. The mites were sorted in the laboratory with a paint brush and tested within 4 h post collection. […] The number of affected (i.e., dead and/paralyzed) was observed and recorded at 1, 2, 6, 12, 24, and 48 h. The percent effect for each treatment was analyzed using a one-way analysis of variance (ANOVA) with a Tukey’s post-hoc test (GraphPad Prism, La Jolla, CA; p < 0.05).

[1] = biological target: Varroa mite proctolin receptor (VdProctR) (Varroa destructor, UniProt A0A7T1TE40); test: Receptor activity assay (aequorin luminescence), CHO cells transiently expressing the receptor, first set of ligands; assay type: cell-based; conditions: activities at 1 μM and 10 μM
Varroa mite proctolin receptor (VdProctR), sequence (A0A7T1TE40 entry or part of it): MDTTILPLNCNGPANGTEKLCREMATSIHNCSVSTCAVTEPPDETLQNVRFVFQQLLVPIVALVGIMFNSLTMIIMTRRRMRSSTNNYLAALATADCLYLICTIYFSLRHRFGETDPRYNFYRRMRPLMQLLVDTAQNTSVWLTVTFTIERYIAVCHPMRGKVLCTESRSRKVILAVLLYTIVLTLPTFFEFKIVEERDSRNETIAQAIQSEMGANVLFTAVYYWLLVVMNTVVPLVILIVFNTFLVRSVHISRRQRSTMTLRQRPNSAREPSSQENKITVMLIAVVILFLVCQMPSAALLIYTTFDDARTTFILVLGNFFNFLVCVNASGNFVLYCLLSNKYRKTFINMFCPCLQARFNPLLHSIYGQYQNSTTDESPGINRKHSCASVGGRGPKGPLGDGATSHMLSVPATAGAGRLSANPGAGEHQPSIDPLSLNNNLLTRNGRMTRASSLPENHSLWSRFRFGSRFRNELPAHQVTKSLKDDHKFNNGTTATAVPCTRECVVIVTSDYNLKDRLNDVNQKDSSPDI
Protocol: (§1) Approximately thirty hours after transfection, the cells were collected and preincubated with coelenterazine h for the functional assay, as previously described[30],[31],[52]. The ligands in serial dilutions were loaded into 96-well opaque plates. Cells treated with coelenterazine h were injected into each well on an Orion microplate luminometer (Berthold) luminescent plate reader. The luminescence was measured for 20 s immediately after the cell injections. Data analyses were performed to determine the accumulated luminescence value for 20 s after extraction of blank-well luminescence. […] The three biological replications were regressed for the dose–response curves with 95% confidence intervals (Table 1). For the tests of the second set of ligands, we used the cell line that stably expressed VdProctR, which were selected by Zeocin for 5 passages.

CHO cells, empty vector = test: Negative control, CHO cells transfected with the empty vector; assay type: cell-based, Chinese hamster; conditions: 10 µM
Protocol: The receptor was also tested with a variety of peptide analogs and peptidomimetics.
Approximately thirty hours after transfection, the cells were collected and preincubated with coelenterazine h for the functional assay, as previously described[30],[31],[52]. The ligands in serial dilutions were loaded into 96-well opaque plates. Cells treated with coelenterazine h were injected into each well on an Orion microplate luminometer (Berthold) luminescent plate reader. The luminescence was measured for 20 s immediately after the cell injections. Data analyses were performed to determine the accumulated luminescence value for 20 s after extraction of blank-well luminescence. A dose–response curve was generated and the EC50 (50% effective concentration) was calculated in Origin 7 (OriginLab) as described in Jiang et al.[31],[53]. The three biological replications were regressed for the dose–response curves with 95% confidence intervals (Table 1). For the tests of the second set of ligands, we used the cell line that stably expressed VdProctR, which were selected by Zeocin for 5 passages.

Bombyx mori larval gut = conditions: cited from earlier work
honey bee queen = conditions: injection, 1 µL containing 1 µg; cited from earlier work
[2] = tested on: honey bee FMRFamide receptor; test: Activity on honey bee FMRFamide receptor expressed in CHO cells; assay type: cell-based, Apis mellifera
Protocol: as §1, with “Honey bee FMRFamide receptor was cloned and expressed in the same system as described for the proctolin receptor. […] Approximately” for “Approximately”, “dose-response” for “dose–response”

Compound	effects (paralyzed or dead mites) (Varroa mites)	efficacy (maximal response) compared with proctolin [1]	activity on empty-vector transfected cells (CHO cells, empty vector)	concentration required for hindgut contraction (Bombyx mori larval gut; Bombyx mori larval hindgut)	concentration required in the midgut to slightly reduce leucine uptake (Bombyx mori larval gut; Bombyx mori larval midgut)	effect on egg-laying activity of the queen (honey bee queen)	activity on honey bee FMRFamide receptor [2]
CC(C)C[C@H](NC(=O)[C@H](Cc1ccc(O)cc1)NC(=O)[C@@H](N)CCCNC(=N)N)C(=O)N1[C@H](C(=O)N[C@H](C(=O)O)[C@@H](C)O)C[C@@H]2CCCC[C@@H]21 [Analog 2336, RYL[Oic]T] (H-RYL[Oic]T-OH; N-terminus and C-terminus assumed)	100%	higher than that of proctolin	–	–	–	–	–
RYLPT [Proctolin, RYLPT]	–	–	did not show any activity	180 µM	10 µM	increased the egg-laying activity	no activities
